Our source for the remaining activity and IC50 values is PMC10578352, “Identification of a Protein Arginine Methyltransferase 7 (PRMT7)/Protein Arginine Methyltransferase 9 (PRMT9) Inhibitor” (Journal of Medicinal Chemistry, 2023).

Assay type in all cases: biochemical
The target of one assay is T1, SET7/9/KMT7 (Homo sapiens, UniProt Q8WTS6).
T1 construct: the human recombinant SET7/9 (residues 2–366, C-terminus); GST (N); His (C); purchased Reaction Biology Corporation
T1 sequence (Q8WTS6 2-366): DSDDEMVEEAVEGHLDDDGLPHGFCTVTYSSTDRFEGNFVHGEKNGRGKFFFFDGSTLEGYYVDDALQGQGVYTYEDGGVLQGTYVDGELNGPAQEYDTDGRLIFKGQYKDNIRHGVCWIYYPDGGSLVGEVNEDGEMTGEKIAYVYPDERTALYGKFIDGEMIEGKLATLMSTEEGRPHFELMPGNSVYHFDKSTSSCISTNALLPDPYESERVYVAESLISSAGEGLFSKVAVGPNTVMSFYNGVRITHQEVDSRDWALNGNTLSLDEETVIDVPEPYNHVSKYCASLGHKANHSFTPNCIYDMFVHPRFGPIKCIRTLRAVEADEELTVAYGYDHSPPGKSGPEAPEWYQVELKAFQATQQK
Briefly: HotSpot KMT activity assay, SET7/9. Conditions: read-out: % SET7/9 residual activity. An excerpt: (§1) ; MW = 35.4 kDa; Genbank Accession # NM_018489), or the human recombinant EZH2-containing five-member polycomb repressive complex 2 (including EZH2 residues 2–746, AEBP2 2–517, EED 2–441, RbAp48 2–425, SUZ12 2–739; all full-length; with N-terminal Flag-tag on EED and N-terminal His-tag on all others; MW = 333.8 kDa; Genbank Accession # NM_001203247, NM_001114176, NM_003797, NM_005610, NM_015355), or the human recombinant G9a (residues 913–1193, C-terminus; with an N-terminal His-tag; MW = 34.6 kDa; Genbank Accession # NM_006709.3), or the human recombinant MLL1 complex (including MLL1 residues 3745–3969, C-terminus, WDR5 22–334, C-terminus, RbBP5 1–538, C-terminus, ASH2L 2–534, C-terminus, DPY-30 1–99, C-terminus; N-terminal His-tag on all subunits; MW = 212.0 kDa; Genbank Accession # NM_005933, NM_017588, NM_005057, NM_001105214, NM_0325742), or the human recombinant SET7/9 (residues 2–366, C-terminus; with a N-terminal GST-tag and a C-terminal His-tag; MW = 68.5 kDa; Genbank Accession # NM_030648), or the human recombinant SMYD3 (residues 2–428, C-terminus; C-terminal His-tag; MW = 50.1 kDa; Genbank Accession # NM_001167740), or the human recombinant SUV39H2 (residues 46–410, C-terminus; N-terminal fusion protein with a C-terminal His-tag; MW = 98.8 kDa; GenBank Accession No. NM_001193424), or the human recombinant DOT1L (residues 1–416; N-terminal GST-tag; MW = 80.0 kDa; Genbank Accession # NM_032482) was added to a solution of the proper substrate (oligo nucleosomes for ASH1L, MLL1 complex, and DOT1L, final concentration 0.05 mg/mL; core histone for EZH2 complex and SET7/9, final concentration 0.05 mg/mL; histone H3 for SUV39H2, final concentration 5 μM; histone H3 1–21 for G9a, final concentration 2.5 μM) in freshly prepared reaction buffer (50 mM Tris-HCl (pH 8.5), 5 mM MgCl2, 50 mM NaCl, 1 mM DTT, 1 mM PMSF, 1% DMSO) and gently mixed. […] After incubation for 60 min at 30 °C, the reaction mixture was delivered to filter paper for detection (as assessed by scintillation). […] Values obtained for each compound are mean ± SD determined for two separate experiments.

Another assay has as its target T2, PRMT7 (Homo sapiens, UniProt Q9NVM4).
T2 construct: PRMT7 (residues 2–692, C-terminus); with an N-terminal His-tag; His (N); purchased Reaction Biology Corporation
T2 sequence (Q9NVM4 2-692): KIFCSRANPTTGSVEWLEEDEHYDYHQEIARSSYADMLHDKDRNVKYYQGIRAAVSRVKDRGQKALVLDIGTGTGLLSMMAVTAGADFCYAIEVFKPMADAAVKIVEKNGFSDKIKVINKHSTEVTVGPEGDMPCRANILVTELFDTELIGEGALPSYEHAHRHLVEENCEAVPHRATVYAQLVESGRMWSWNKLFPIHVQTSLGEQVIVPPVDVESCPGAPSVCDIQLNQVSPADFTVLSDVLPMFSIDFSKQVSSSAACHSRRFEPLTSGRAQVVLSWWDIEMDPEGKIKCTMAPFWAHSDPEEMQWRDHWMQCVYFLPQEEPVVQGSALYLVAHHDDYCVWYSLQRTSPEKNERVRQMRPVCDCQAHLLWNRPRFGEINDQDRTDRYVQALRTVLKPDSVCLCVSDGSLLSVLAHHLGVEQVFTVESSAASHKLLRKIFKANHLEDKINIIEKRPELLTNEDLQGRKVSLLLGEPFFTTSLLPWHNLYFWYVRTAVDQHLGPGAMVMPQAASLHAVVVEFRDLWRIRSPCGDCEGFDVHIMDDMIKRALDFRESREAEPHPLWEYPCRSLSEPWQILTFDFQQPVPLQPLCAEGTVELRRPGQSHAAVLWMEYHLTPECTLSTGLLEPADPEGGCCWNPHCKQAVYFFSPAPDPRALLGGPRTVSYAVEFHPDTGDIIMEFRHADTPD
The experiment in a line: HotSpot radioisotope-based filter assay, PRMT7. Conditions: 5 μM GST-GAR, 3H-SAM 1 μM. The method, then:
Then, ^3H-SAM (final concentration of 1 μM) was delivered into the reaction mixture to initiate the reaction. After incubation for 60 min at 30 °C, the reaction mixture was delivered to filter-paper for detection (as assessed by scintillation). Data were analyzed using Excel and GraphPad Prism 6.0 software (GraphPad Software Inc., San Diego, CA) for IC50 curve fits using sigmoidal dose vs response - variable slope (four parameters) equations.

The target in a further assay is T3, ASH1L/KMT2H (Homo sapiens, UniProt Q9NR48).
T3 construct: the human recombinant ASH1L (residues 2046–2330, with an N-terminal His-tag); His (N); purchased Reaction Biology Corporation
Briefly: HotSpot KMT activity assay, ASH1L. Conditions: read-out: % ASH1L residual activity.
Description: as §1

On to `COC(=O)c1cc(O)c2cc(NC(=O)NCCCNC(=N)NC[C@H]3O[C@@H](n4cnc5c(N)ncnc54)[C@H](O)[C@@H]3O)cc(C(F)(F)F)c2c1` [1j, Methyl 6-(3-(3-(3-(((2R,3S,4R,5R)-5-(6-Amino-9H-purin-9-yl)-3,4-dihydroxytetrahydrofuran-2-yl)methyl)guanidino)propyl)ureido)-4-hydroxy-8-(trifluoromethyl)-2-naphthoate], for which the remaining activity at 10 µM on SET7/9/KMT7 (10 μM) came out at 86.3 ± 1.4%; at ASH1L/KMT2H (10 μM), 95.4 ± 1.49%. For the same compound, the remaining activity at 100 µM was 53.33 ± 0.38% at SET7/9/KMT7 (100 μM) and 109 ± 3.8% on ASH1L/KMT2H (100 μM). This compound had an IC50 on PRMT7 of 5.6 µM.

What is called IC50 is the concentration that inhibits the measured activity by half. Higher therefore signals weaker potency in that assay.
